Measured values from patent US20220388964A1 (HiberCell, Inc., priority 2019, published 2022).

The compounds below were run against GCN2 (Homo sapiens, UniProt Q9P2K8) (assay: TR-FRET biochemical assay for inhibition of GCN2 (Example 108, for Examples 73-105)).
Sequence of GCN2 (Q9P2K8 whole entry): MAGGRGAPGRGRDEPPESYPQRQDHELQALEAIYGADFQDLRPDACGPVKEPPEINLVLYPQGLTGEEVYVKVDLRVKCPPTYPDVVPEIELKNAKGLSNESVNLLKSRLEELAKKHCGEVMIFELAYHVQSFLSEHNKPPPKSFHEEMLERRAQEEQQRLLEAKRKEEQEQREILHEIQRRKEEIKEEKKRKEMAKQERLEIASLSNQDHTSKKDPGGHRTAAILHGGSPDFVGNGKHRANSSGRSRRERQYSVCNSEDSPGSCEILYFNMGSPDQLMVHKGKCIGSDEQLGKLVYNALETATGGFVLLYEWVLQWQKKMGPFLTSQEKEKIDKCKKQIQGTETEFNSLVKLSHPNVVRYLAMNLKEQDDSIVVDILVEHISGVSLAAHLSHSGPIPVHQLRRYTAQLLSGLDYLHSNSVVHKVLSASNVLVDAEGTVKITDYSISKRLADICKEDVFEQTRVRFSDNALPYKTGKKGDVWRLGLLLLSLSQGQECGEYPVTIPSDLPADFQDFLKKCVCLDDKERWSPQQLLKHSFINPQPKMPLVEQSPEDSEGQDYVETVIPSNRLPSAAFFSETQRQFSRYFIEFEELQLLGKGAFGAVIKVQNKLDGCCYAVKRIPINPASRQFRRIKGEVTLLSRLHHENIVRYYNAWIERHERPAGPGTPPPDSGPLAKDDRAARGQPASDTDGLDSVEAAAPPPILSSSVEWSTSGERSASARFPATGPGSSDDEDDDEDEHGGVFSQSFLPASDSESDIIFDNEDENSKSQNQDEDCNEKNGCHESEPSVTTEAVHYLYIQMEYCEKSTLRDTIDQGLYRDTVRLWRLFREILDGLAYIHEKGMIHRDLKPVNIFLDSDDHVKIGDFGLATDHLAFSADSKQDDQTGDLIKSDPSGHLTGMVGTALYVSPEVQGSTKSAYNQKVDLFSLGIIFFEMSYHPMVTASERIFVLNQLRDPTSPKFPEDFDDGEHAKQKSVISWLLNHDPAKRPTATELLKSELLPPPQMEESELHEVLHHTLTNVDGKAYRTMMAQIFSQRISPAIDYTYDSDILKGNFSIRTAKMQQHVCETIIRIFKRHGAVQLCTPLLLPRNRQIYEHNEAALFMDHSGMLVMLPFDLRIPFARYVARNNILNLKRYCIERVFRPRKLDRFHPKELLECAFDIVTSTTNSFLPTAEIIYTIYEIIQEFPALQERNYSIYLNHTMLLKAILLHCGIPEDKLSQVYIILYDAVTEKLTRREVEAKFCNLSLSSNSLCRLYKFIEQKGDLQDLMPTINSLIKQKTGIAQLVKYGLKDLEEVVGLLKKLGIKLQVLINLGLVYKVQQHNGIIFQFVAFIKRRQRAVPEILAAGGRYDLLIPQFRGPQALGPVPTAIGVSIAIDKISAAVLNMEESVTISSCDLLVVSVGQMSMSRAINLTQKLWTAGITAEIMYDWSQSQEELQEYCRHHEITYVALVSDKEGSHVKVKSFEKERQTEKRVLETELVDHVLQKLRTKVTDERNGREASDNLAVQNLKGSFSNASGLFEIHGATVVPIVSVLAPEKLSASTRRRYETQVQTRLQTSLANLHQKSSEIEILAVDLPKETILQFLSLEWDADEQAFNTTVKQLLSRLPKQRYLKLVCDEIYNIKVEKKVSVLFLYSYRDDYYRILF

| SMILES | IC50 [nM] |
| --- | --- |
| COc1ncc(Cl)cc1S(=O)(=O)Nc1ccc(F)c(-c2ccc3c(C(=O)NC4CCCCC4N)n[nH]c3c2F)c1F (stereo not shown) [Example 94, N-(2-Aminocyclohexyl)-6-[3-(5-chloro-2-methoxypyridine-3-sulfonamido)-2,6-difluorophenyl]-7-fluoro-1H-indazole-3-carboxamide] | 500 to 2500 |
| CNC(=O)c1n[nH]c2c(F)c(-c3c(F)ccc(NS(=O)(=O)C4CCOCC4)c3F)ccc12 [Example 75, 6-[2,6-difluoro-3-(oxane-4-sulfonamido)phenyl]-7-fluoro-N-methyl-1H-indazole-3-carboxamide] | 2500 to 10000 |
| CNC(=O)c1n[nH]c2c(F)c(-c3c(F)ccc(NS(=O)(=O)C4CCCN(C)C4)c3F)ccc12 (stereo not shown) [Example 77, 6-[2,6-difluoro-3-(1-methylpiperidine-3-sulfonamido)phenyl]-7-fluoro-N-methyl-1H-indazole-3-carboxamide] | 2500 to 10000 |
| CNC(=O)c1n[nH]c2c(F)c(-c3c(F)ccc(NS(=O)(=O)CC4CCC(O)C4)c3F)ccc12 (mixture of isomers) [Example 78, 6-[2,6-difluoro-3-[(3-hydroxycyclopentyl)methanesulfonamido]phenyl]-7-fluoro-N-methyl-1H-indazole-3-carboxamide] | 2500 to 10000 |
| COc1ncc(Cl)cc1S(=O)(=O)Nc1ccc(F)c(-c2ccc3c(C(=O)NC(C#N)C4CC4)n[nH]c3c2F)c1F (stereo not shown) [Example 91, 6-[3-(5-Chloro-2-methoxypyridine-3-sulfonamido)-2,6-difluorophenyl]-N-[cyano(cyclopropyl)methyl]-7-fluoro-1H-indazole-3-carboxamide] | < 500 |
| COc1ncc(Cl)cc1S(=O)(=O)Nc1ccc(F)c(-c2ccc3c(C(=O)NCCN4CCCC4=O)n[nH]c3c2F)c1F [Example 99, 6-[3-(5-Chloro-2-methoxypyridine-3-sulfonamido)-2,6-difluorophenyl]-7-fluoro-N-[2-(2-oxopyrrolidin-1-yl)ethyl]-1H-indazole-3-carboxamide] | < 500 |
| COc1ncc(Cl)cc1S(=O)(=O)Nc1ccc(F)c(-c2ccc3c(C(=O)NCC4CCOCC4)n[nH]c3c2F)c1F [Example 82] | < 500 |
| C#CC(C)(C)NC(=O)c1n[nH]c2c(F)c(-c3c(F)ccc(NS(=O)(=O)c4cc(Cl)cnc4OC)c3F)ccc12 [Example 89, 6-[3-(5-Chloro-2-methoxypyridine-3-sulfonamido)-2,6-difluorophenyl]-7-fluoro-N-(2-methylbut-3-yn-2-yl)-1H-indazole-3-carboxamide] | < 500 |
| COc1ncc(Cl)cc1S(=O)(=O)Nc1ccc(F)c(-c2ccc3c(C(=O)NC4CCC(O)C4)n[nH]c3c2F)c1F (stereo not shown) [Example 97, 6-[3-(5-Chloro-2-methoxypyridine-3-sulfonamido)-2,6-difluorophenyl]-7-fluoro-N-(3-hydroxycyclopentyl)-1H-indazole-3-carboxamide] | < 500 |
| COc1ncc(Cl)cc1S(=O)(=O)Nc1ccc(F)c(-c2ccc3c(C(=O)NC4CC4)n[nH]c3c2F)c1F [Example 81, 6-[3-(5-Chloro-2-methoxypyridine-3-sulfonamido)-2,6-difluorophenyl]-N-cyclopropyl-7-fluoro-1H-indazole-3-carboxamide] | < 500 |
| COc1ncc(Cl)cc1S(=O)(=O)Nc1ccc(F)c(-c2ccc3c(C(=O)NCC(F)(F)F)n[nH]c3c2F)c1F [Example 90, 6-[3-(5-Chloro-2-methoxypyridine-3-sulfonamido)-2,6-difluorophenyl]-7-fluoro-N-(2,2,2-trifluoroethyl)-1H-indazole-3-carboxamide] | < 500 |
| C#CCNC(=O)c1n[nH]c2c(F)c(-c3c(F)ccc(NS(=O)(=O)c4cc(Cl)cnc4OC)c3F)ccc12 [Example 92, 6-[3-(5-Chloro-2-methoxypyridine-3-sulfonamido)-2,6-difluorophenyl]-7-fluoro-N-(prop-2-yn-1-yl)-1H-indazole-3-carboxamide] | < 500 |
| COc1ncc(Cl)cc1S(=O)(=O)Nc1ccc(F)c(-c2ccc3c(C(=O)NC(C)CN)n[nH]c3c2F)c1F (stereo not shown) [Example 95, N-(1-Aminopropan-2-yl)-6-[3-(5-chloro-2-methoxypyridine-3-sulfonamido)-2,6-difluorophenyl]-7-fluoro-1H-indazole-3-carboxamide] | < 500 |
| COc1ncc(Cl)cc1S(=O)(=O)Nc1ccc(F)c(-c2ccc3c(C(=O)NCCS(C)(=O)=O)n[nH]c3c2F)c1F [Example 84, 6-[3-(5-Chloro-2-methoxypyridine-3-sulfonamido)-2,6-difluorophenyl]-7-fluoro-N-(2-methanesulfonylethyl)-1H-indazole-3-carboxamide] | < 500 |

Second part, the compound after the results:

| IC50 [nM] | SMILES |
| --- | --- |
| < 500 | COc1ncc(Cl)cc1S(=O)(=O)Nc1ccc(F)c(-c2ccc3c(C(=O)NCC4CCN(C)C4)n[nH]c3c2F)c1F (stereo not shown) [Example 100, 6-[3-(5-Chloro-2-methoxypyridine-3-sulfonamido)-2,6-difluorophenyl]-7-fluoro-N-[(1-methylpyrrolidin-3-yl)methyl]-1H-indazole-3-carboxamide] |
| < 500 | COc1ncc(Cl)cc1S(=O)(=O)Nc1ccc(F)c(-c2ccc3c(C(=O)NC4CCCC4O)n[nH]c3c2F)c1F (stereo not shown) [Example 87, 6-[3-(5-Chloro-2-methoxypyridine-3-sulfonamido)-2,6-difluorophenyl]-7-fluoro-N-(2-hydroxycyclopentyl)-1H-indazole-3-carboxamide] |
| < 500 | COc1ncc(Cl)cc1S(=O)(=O)Nc1ccc(F)c(-c2ccc3c(C(=O)NC4CCC(=O)CC4)n[nH]c3c2F)c1F [Example 96, 6-[3-(5-Chloro-2-methoxypyridine-3-sulfonamido)-2,6-difluorophenyl]-7-fluoro-N-(4-oxocyclohexyl)-1H-indazole-3-carboxamide] |
| < 500 | COc1ncc(Cl)cc1S(=O)(=O)Nc1ccc(F)c(-c2ccc3c(C(=O)NC4CCCC(N)C4)n[nH]c3c2F)c1F (stereo not shown) [Example 98, N-(3-Aminocyclohexyl)-6-[3-(5-chloro-2-methoxypyridine-3-sulfonamido)-2,6-difluorophenyl]-7-fluoro-1H-indazole-3-carboxamide] |
| < 500 | COc1ncc(Cl)cc1S(=O)(=O)Nc1ccc(F)c(-c2ccc3c(C(=O)NCCN4CCCC4)n[nH]c3c2F)c1F [Example 83, 6-[3-(5-chloro-2-methoxypyridine-3-sulfonamido)-2,6-difluorophenyl]-7-fluoro-N-[2-(pyrrolidin-1-yl)ethyl]-1H-indazole-3-carboxamide] |
| < 500 | CNC(=O)c1n[nH]c2c(F)c(-c3c(F)ccc(NS(=O)(=O)c4cc(F)cc5c4CCC5O)c3F)ccc12 (stereo not shown) [Example 76, 6-[2,6-Difluoro-3-(6-fluoro-1-hydroxy-2,3-dihydro-1H-indene-4-sulfonamido)phenyl]-7-fluoro-N-methyl-1H-indazole-3-carboxamide] |
| < 500 | COc1ncc(Cl)cc1S(=O)(=O)Nc1ccc(F)c(-c2ccc3c(C(=O)NC4CCCC4)n[nH]c3c2F)c1F [Example 79, 6-[3-(5-Chloro-2-methoxypyridine-3-sulfonamido)-2,6-difluorophenyl]-N-cyclopentyl-7-fluoro-1H-indazole-3-carboxamide] |
| < 500 | COc1ncc(Cl)cc1S(=O)(=O)Nc1ccc(F)c(-c2ccc3c(C(=O)NC4CCCCC4O)n[nH]c3c2F)c1F (stereo not shown) [Example 88, 6-[3-(5-Chloro-2-methoxypyridine-3-sulfonamido)-2,6-difluorophenyl]-7-fluoro-N-(2-hydroxycyclohexyl)-1H-indazole-3-carboxamide] |
